# Active and inactive are the calls of the source. No rule for the calls is given here.
# Target: Induced myeloid leukemia cell differentiation protein Mcl-1 (Homo sapiens) (UniProt Q07820)
# Test: blockers of Bid binding to Mcl-1 – biochemical, TR-FRET, dose response (AID 1418)
# Settings: Mcl-1/Bid peptide binding, TR-FRET (europium/Dy647), 2 hr
# Sequence of Induced myeloid leukemia cell differentiation protein Mcl-1 (Homo sapiens) (Q07820 whole entry, looked up): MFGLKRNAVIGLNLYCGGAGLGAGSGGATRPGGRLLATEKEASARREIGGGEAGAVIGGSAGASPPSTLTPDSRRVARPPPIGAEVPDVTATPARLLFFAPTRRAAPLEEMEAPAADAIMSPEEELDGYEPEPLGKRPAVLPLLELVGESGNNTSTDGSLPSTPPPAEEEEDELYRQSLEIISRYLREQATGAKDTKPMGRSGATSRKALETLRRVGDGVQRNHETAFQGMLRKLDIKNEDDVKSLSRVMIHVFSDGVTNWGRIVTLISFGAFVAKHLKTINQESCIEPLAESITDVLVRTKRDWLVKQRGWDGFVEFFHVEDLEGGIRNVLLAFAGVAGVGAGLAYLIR
row,IC50,Compound
1,> 54 µM (inactive),Cc1cccc(C(=O)N2CCc3cc(-c4nc(NC(=O)Cn5nnc6ccccc6c5=O)sc4C)ccc32)c1
2,> 54 µM (inactive),CC(Oc1ccc(Cl)cc1Cl)C(=O)N(C)c1ccccc1 (stereo unspecified)
3,> 54 µM (inactive),O=C(Cn1nnc(-c2ccccc2NC(=O)c2cccs2)n1)Nc1ccccc1
4,1.47 µM,CC1CCc2c(sc3ncn(CC(=O)N=Nc4c(O)[nH]c5ccccc45)c(=O)c23)C1 (stereo unspecified)
5,8.94 µM,O=C1c2ccccc2C(=O)C1Cc1cccc2ccccc12
6,> 54 µM (inactive),O=C(C[n+]1cc(-c2ccccc2)n2c1CCC2)N1c2ccccc2Sc2ccccc21
7,> 54 µM (inactive),Cc1nnc(SCc2cc(=O)oc3ccc4ccccc4c23)n1Cc1ccccc1

# Further lines, the compound ahead of its results:
row,Compound,IC50
1,C=CCOC(=O)c1cc(-c2ccc(/C=C3\C(=O)NC(=O)C(C#N)=C3C)o2)ccc1Cl,0.53 µM
2,Cc1c([N+](=O)[O-])c(C(=O)Nc2ccc3c(c2)OCCO3)nn1C,> 54 µM (inactive)
3,Nc1c(C(=O)NC2CC2)sc2nc3c(c(-c4ccco4)c12)CC/C3=C/c1ccco1,> 54 µM (inactive)
4,Cc1cccc(NC(=O)C2C(C(=O)O)C3C=CC2C32CC2)c1C (stereo unspecified),> 54 µM (inactive)
5,CC(NC(=O)NC1CCCCC1)C(c1cccs1)N1CCN(c2ccccc2)CC1 (stereo unspecified),> 54 µM (inactive)
6,Nc1nc(Nc2cccc(F)c2)nc(N2CCOCC2)c1[N+](=O)[O-],> 54 µM (inactive)
7,O=C(N/N=C/C=C/c1ccc([N+](=O)[O-])cc1)c1cccs1,inactive
8,CCOC(=O)C1CCN(CC(=O)Nc2c(C(=O)OC)[nH]c3cccc(Cl)c23)CC1,> 54 µM (inactive)
9,Clc1ccc(SCCn2ccnc2)cc1,inactive

# From PubChem BioAssay AID1418 (Emory University Molecular Libraries Screening Center, 2008)
